Assay results as given in patent US12441768B2, “Compositions and methods for treating endometriosis” (EndoMet Biosciences, Inc., priority 2018, dated 2025).
Where a SMILES comes first, the peptide text is derived from it.

Molecular target: T1, β-catenin (Homo sapiens, UniProt P35222)
T1 sequence (P35222 1-781): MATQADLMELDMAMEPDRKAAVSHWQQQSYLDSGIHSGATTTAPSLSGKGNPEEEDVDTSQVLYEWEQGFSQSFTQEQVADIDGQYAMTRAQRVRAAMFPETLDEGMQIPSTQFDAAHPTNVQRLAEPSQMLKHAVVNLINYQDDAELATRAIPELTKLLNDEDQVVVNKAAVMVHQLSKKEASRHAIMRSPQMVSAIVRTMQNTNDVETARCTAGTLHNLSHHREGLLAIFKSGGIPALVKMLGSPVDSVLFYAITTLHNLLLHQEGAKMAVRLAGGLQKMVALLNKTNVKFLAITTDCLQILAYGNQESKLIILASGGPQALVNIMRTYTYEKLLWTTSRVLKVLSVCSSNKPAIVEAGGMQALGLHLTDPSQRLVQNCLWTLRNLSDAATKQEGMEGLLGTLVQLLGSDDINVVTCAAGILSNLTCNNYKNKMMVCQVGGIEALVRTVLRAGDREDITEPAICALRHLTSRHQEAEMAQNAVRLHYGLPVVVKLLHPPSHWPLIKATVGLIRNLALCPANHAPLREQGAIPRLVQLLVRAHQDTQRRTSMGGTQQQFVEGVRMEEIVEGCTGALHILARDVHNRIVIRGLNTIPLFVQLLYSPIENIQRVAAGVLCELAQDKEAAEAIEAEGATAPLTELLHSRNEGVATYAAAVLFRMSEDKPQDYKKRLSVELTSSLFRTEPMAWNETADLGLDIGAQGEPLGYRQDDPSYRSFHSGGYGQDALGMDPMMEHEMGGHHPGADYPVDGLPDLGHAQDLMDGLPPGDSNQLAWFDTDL
Assay: KD50 measurement using competitive fluorescence polarization (FP) with labelled TCF4
Type: binding
Conditions: fluorescence polarization, β-catenin; for Kd: read-out: β-Cat FP KD
Method in brief: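 First, β-catenin at 100 nM is mixed with 5 nM labelled TCF4 at room temperature. Next, compound is added across serial dilutions (10 nM to 30 uM). Finally, fluorescence polarization is measured (ex 470 nm, em 520 nm); experiments are done three times.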

Kd [µM]	β-Cat FP Hill slope	SMILES
> 30	–	CC[C@H](C)[C@@H]1NC(=O)[C@H](CC(C)C)NC(=O)[C@H](CC2CCCCC2)NC(=O)[C@H](Cc2c[nH]c3ccccc23)NC(=O)[C@@H](NC(C)=O)CCCCNC(=O)C[C@@H](C(=O)O)NC(=O)[C@H](Cc2c[nH]c3ccccc23)NC(=O)[C@H](C)NC(=O)[C@H](CO)NC1=O [compound 255] (HELM PEPTIDE1{[ac].K.W.[Cha].L.I.S.A.W.D}$PEPTIDE1,PEPTIDE1,2:R3-10:R3$$$V2.0)
< 0.4	0.77	CC[C@H](C)[C@@H]1NC(=O)[C@H](CC(C)C)NC(=O)[C@@H](NC(=O)[C@H](Cc2c[nH]c3ccccc23)NC(=O)[C@@H](N)CCSC)CCCCNC(=O)CC[C@@H](C(=O)N[C@@H](Cc2ccccc2)C(=O)N[C@@H](Cc2c[nH]c3ccccc23)C(=O)NCC(=O)O)NC1=O [compound 230] (HELM PEPTIDE1{M.W.K.L.I.E.F.W.G}$PEPTIDE1,PEPTIDE1,3:R3-6:R3$$$V2.0)
0.4 to 1	0.7	CC[C@H](C)[C@@H]1NC(=O)[C@@H](NC(=O)[C@H](CCC(N)=O)NC(=O)[C@H](C)N(C)C(=O)[C@@H](N)Cc2c[nH]c3ccccc23)CCCNC(=O)CC[C@@H](C(=O)N[C@@H](Cc2c[nH]cn2)C(=O)N[C@H](C(=O)N[C@@H](CCC(N)=O)C(=O)N[C@@H](CCCNC(=N)N)C(=O)N[C@H](C(=O)N[C@@H](Cc2c[nH]c3ccccc23)C(=O)NCC(N)=O)C(C)C)C2CCCCC2)NC(=O)[C@H](CC(=O)O)NC(=O)[C@H](CC(C)C)NC1=O [compound 423] (HELM PEPTIDE1{W.[meA].Q.[Orn].I.L.D.E.H.[O=C([C@@H](N[*:1])C1CCCCC1)[*:2]].Q.R.V.W.G.[am]}$PEPTIDE1,PEPTIDE1,4:R3-8:R3$$$V2.0)
> 30	–	CC[C@H](C)[C@@H]1NC(=O)[C@@H](NC(=O)[C@H](CCC(N)=O)NC(=O)[C@H](C)N(C)C(=O)[C@@H](N)Cc2c[nH]c3ccccc23)CCCCNC(=O)CC[C@@H](C(=O)N[C@@H](Cc2c[nH]cn2)C(=O)N[C@H](C(=O)N[C@@H](CCC(N)=O)C(=O)N[C@@H](CCCNC(=N)N)C(=O)N[C@H](C(=O)N[C@@H](Cc2c[nH]c3ccccc23)C(=O)NCC(N)=O)C(C)C)C(C)C)NC(=O)[C@H](CC(=O)O)NC(=O)[C@H](CC2CCCCC2)NC1=O [compound 406] (HELM PEPTIDE1{W.[meA].Q.K.I.[Cha].D.E.H.V.Q.R.V.W.G.[am]}$PEPTIDE1,PEPTIDE1,4:R3-8:R3$$$V2.0)
< 0.4	3	CC[C@@H]1NC(=O)[C@H]([C@@H](C)CC)NC(=O)[C@H](CC(C)C)NC(=O)[C@H](Cc2ccccc2)NC(=O)[C@H](Cc2c[nH]c3ccccc23)NC(=O)CCCCCNC(=O)C[C@@H](C(=O)O)NC(=O)[C@H](Cc2c[nH]c3ccccc23)NC(=O)[C@H](C)NC1=O [compound 246] (HELM PEPTIDE1{[O=C(CCCCCN[*:1])[*:2]].W.F.L.I.[Abu].A.W.D}$PEPTIDE1,PEPTIDE1,1:R1-9:R3$$$V2.0)
> 30	–	CC[C@H](C)[C@H](NC(=O)[C@H](CC(=O)O)NC(=O)[C@H](CCCNC(=N)N)NC(=O)[C@H](CC(C)C)NC(=O)[C@@H](NC(=O)[C@H](CCC(N)=O)NC(=O)[C@H](CC(C)C)NC(=O)[C@H](CO)NC(=O)[C@H](CCCNC(=N)N)NC(=O)[C@H](CCC(=O)O)NC(=O)[C@H](CCCNC(=N)N)NC(=O)[C@H](Cc1c[nH]cn1)NC(=O)[C@H](CCC(=O)O)NC(=O)[C@H](CC(C)C)NC(=O)[C@H](CCC(N)=O)NC(=O)[C@H](CCC(=O)O)NC(=O)[C@H](CCC(N)=O)NC(=O)[C@H](CO)NC(=O)[C@H](CC(C)C)NC(=O)CNC(=O)[C@H](CC(=O)O)NC(=O)[C@@H]1CCCN1C(=O)[C@H](CC(N)=O)NC(C)=O)[C@@H](C)O)C(=O)N[C@@H](CCC(N)=O)C(=O)N[C@@H](CCCNC(=N)N)C(=O)N[C@@H](CCSC)C(=O)N[C@@H](CC(C)C)C(=O)N[C@@H](Cc1ccccc1)C(=O)N1CCC[C@H]1C(=O)N[C@@H](CC(=O)O)C(=O)N[C@@H](CCC(=O)O)C(=O)N[C@@H](CCCCN)C(=O)N[C@@H](CCC(=O)O)C(=O)N[C@@H](Cc1ccccc1)C(=O)N[C@H](C(=O)NCCC(=O)NCCC(=O)N[C@@H](CCCCN)C(N)=O)[C@@H](C)O [compound 270]
10 to 30	0.5	CC[C@H](C)[C@H](NC(=O)[C@H](CC(C)C)NC(=O)[C@H](Cc1ccccc1)NC(=O)[C@H](Cc1c[nH]c2ccccc12)NC(=O)[C@@H](N)CCSC)C(=O)N[C@@H](CO)C(=O)N[C@@H](Cc1ccccc1)C(=O)N[C@@H](Cc1c[nH]c2ccccc12)C(=O)N[C@@H](C)C(=O)O [compound 7] (H-MWFLISFWA-OH)
< 0.4	–	CCCCCCCCCCCC(=O)N[C@@H](Cc1c[nH]c2ccccc12)C(=O)N(C)[C@@H](C)C(=O)N[C@@H](CCC(N)=O)C(=O)N[C@H]1CCCCNC(=O)C[C@@H](C(=O)N[C@@H](Cc2c[nH]cn2)C(=O)N[C@H](C(=O)N[C@@H](CCC(N)=O)C(=O)N[C@@H](C)C(=O)N[C@H](C(=O)N[C@@H](Cc2c[nH]c3ccccc23)C(N)=O)C(C)C)C2CCCCC2)NC(=O)[C@H](CC(N)=O)NC(=O)[C@H](CC(C)C)NC(=O)[C@H]([C@@H](C)CC)NC1=O [compound 459] (HELM PEPTIDE1{[CCCCCCCCCCCC(=O)[*:2]].W.[meA].Q.K.I.L.N.D.H.[O=C([C@@H](N[*:1])C1CCCCC1)[*:2]].Q.A.V.W.[am]}$PEPTIDE1,PEPTIDE1,5:R3-9:R3$$$V2.0)
< 0.4	–	CCCCCCCCC(=O)N[C@@H](Cc1c[nH]c2ccccc12)C(=O)N(C)[C@@H](C)C(=O)N[C@@H](CCC(N)=O)C(=O)N[C@H]1CCCCNC(=O)C[C@@H](C(=O)N[C@@H](Cc2c[nH]cn2)C(=O)N[C@H](C(=O)N[C@@H](CCC(N)=O)C(=O)N[C@@H](CCCNC(=N)N)C(=O)N[C@H](C(=O)N[C@@H](Cc2c[nH]c3ccccc23)C(=O)NCC(N)=O)C(C)C)C2CCCCC2)NC(=O)[C@H](CC(=O)O)NC(=O)[C@H](CC(C)C)NC(=O)[C@H]([C@@H](C)CC)NC1=O [compound 431] (HELM PEPTIDE1{[CCCCCCCCC(=O)[*:2]].W.[meA].Q.K.I.L.D.D.H.[O=C([C@@H](N[*:1])C1CCCCC1)[*:2]].Q.R.V.W.G.[am]}$PEPTIDE1,PEPTIDE1,5:R3-9:R3$$$V2.0)
< 0.4	–	CCCCCCCCCCCC(=O)N(C)[C@@H](C)C(=O)N[C@@H](CCC(N)=O)C(=O)N[C@H]1CCCCNC(=O)CC[C@@H](C(=O)N[C@@H](Cc2c[nH]cn2)C(=O)N[C@H](C(=O)N[C@@H](CCC(N)=O)C(=O)N[C@@H](CCCNC(=N)N)C(=O)N[C@H](C(=O)N[C@@H](Cc2c[nH]c3ccccc23)C(=O)NCC(N)=O)C(C)C)C2CCCCC2)NC(=O)[C@H](CC(N)=O)NC(=O)[C@H](CC(C)C)NC(=O)[C@H]([C@@H](C)CC)NC1=O [compound 434] (HELM PEPTIDE1{[CCCCCCCCCCCC(=O)[*:2]].[meA].Q.K.I.L.N.E.H.[O=C([C@@H](N[*:1])C1CCCCC1)[*:2]].Q.R.V.W.G.[am]}$PEPTIDE1,PEPTIDE1,4:R3-8:R3$$$V2.0)
1 to 10	0.5	CCC[C@H]1C(=O)N[C@@H](Cc2c[nH]c3ccccc23)C(=O)N[C@@H](CC(C)C)C(=O)N[C@@H](CO)C(=O)N[C@@H](CCCNC(=N)N)C(=O)N[C@@H](CCC(N)=O)C(=O)N[C@@H](Cc2c[nH]c3ccccc23)C(=O)N[C@@H]([C@@H](C)CC)C(=O)N[C@@H](C(C)C)C(=O)N[C@H](C(N)=O)CCCCNC(=O)CCCC(=O)N[C@@H](CCSC)C(=O)N[C@@H](Cc2c[nH]c3ccccc23)C(=O)N1C [compound 5] (HELM PEPTIDE1{M.W.[CCC[C@@H](C(=O)[*:2])N(C)[*:1]].W.L.S.R.Q.W.I.V.K.[am]}|CHEM1{[O=C(CCCC(=O)[*:2])[*:1]]}$PEPTIDE1,CHEM1,1:R1-1:R1|PEPTIDE1,CHEM1,12:R3-1:R2$$$V2.0)
